{"source": "paper PMC7960226", "about": "(Science (New York, N.Y.), 2020)", "key": {"[1]": {"molecular_target": "NR1I2 (Homo sapiens, UniProt O75469)", "experiment": "safety panel assay, NR1I2", "assay_type": "binding", "conditions": "Table 2, NR1I2; accurate to ±20%"}, "[2]": {"test_system": "BioMAP Diversity PLUS panel", "experiment": "BioMAP Diversity PLUS panel of cell-based systems"}, "[3]": {"molecular_target": "SLC18A2 (Homo sapiens, UniProt Q05940)", "sequence (Q05940 whole entry, species assumed)": "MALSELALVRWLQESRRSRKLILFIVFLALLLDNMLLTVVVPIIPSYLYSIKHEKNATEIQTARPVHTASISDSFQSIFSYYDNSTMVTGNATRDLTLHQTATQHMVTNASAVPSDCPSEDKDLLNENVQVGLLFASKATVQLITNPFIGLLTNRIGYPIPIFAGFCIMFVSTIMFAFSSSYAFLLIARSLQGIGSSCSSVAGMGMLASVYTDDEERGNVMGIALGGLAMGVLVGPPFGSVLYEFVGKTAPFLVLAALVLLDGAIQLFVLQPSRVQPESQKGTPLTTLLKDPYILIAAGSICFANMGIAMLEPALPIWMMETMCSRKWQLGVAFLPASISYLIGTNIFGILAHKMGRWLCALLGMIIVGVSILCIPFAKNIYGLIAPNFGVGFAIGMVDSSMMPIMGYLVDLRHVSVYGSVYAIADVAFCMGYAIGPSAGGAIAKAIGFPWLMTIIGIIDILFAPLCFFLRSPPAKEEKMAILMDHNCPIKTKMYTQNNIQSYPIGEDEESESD", "experiment": "transporter inhibition, SLC18A2", "assay_type": "biochemical", "conditions": "Table 2, SLC18A2; accurate to ±20%"}, "[4]": {"molecular_target": "ABCB11 (Homo sapiens, UniProt O95342)", "experiment": "transporter inhibition, ABCB11", "assay_type": "biochemical", "conditions": "Table 2, ABCB11; accurate to ±20%"}, "[5]": {"molecular_target": "T1, CHRM1 (Homo sapiens, UniProt P11229)", "T1 sequence (P11229 1-460)": "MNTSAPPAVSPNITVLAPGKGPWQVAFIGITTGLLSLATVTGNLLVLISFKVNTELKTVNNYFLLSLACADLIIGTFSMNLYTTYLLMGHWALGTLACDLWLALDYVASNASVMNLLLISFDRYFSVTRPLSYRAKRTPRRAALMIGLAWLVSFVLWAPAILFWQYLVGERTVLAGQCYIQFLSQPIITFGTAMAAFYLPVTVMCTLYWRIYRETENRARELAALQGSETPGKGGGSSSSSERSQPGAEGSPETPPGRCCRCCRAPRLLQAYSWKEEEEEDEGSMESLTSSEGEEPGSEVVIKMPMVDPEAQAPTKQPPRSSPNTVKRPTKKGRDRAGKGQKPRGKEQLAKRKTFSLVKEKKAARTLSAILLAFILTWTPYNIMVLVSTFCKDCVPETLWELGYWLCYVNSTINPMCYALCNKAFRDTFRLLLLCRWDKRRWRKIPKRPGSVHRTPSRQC"}, "[6]": {"molecular_target": "T2, SLCO2B1 (Homo sapiens, UniProt O94956)", "T2 sequence (O94956 1-709)": "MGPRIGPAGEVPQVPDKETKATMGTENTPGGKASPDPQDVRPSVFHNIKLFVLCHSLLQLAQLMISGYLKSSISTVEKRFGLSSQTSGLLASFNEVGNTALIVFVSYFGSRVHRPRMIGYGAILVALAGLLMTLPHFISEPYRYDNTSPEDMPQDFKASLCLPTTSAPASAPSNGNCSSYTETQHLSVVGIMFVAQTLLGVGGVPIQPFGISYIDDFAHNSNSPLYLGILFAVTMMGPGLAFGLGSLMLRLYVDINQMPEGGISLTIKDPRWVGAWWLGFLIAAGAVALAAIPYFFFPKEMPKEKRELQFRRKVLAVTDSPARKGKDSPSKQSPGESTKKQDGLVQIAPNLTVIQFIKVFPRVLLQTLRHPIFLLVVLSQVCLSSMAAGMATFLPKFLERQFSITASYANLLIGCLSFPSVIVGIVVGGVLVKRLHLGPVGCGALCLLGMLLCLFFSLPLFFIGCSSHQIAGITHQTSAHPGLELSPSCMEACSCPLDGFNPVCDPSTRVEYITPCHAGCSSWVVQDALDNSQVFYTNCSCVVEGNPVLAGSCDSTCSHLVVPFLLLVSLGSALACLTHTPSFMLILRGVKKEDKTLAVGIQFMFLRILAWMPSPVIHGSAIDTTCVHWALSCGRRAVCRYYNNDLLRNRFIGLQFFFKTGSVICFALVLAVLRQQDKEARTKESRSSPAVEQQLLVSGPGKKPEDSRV", "experiment": "in vitro transporter inhibition, SLCO2B1", "assay_type": "biochemical"}, "[7]": {"experiment": "Madin-Darby canine kidney permeability assay", "conditions": "dog, MDCK"}, "[8]": {"molecular_target": "TBXA2R (Homo sapiens, UniProt P21731)", "sequence (P21731 whole entry, species assumed)": "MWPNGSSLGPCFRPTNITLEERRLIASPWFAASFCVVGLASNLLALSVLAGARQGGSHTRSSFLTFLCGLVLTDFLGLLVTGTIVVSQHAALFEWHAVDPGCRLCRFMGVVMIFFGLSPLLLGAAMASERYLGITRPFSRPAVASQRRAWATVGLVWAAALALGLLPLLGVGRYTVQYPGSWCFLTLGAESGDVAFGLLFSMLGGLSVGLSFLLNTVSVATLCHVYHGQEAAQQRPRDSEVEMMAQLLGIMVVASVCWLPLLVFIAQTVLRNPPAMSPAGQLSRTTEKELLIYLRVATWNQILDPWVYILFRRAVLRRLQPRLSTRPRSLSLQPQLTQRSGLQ", "experiment": "safety panel assay, TBXA2R", "assay_type": "binding"}, "[9]": {"molecular_target": "SLC6A2 (Homo sapiens, UniProt P23975)", "conditions": "Table 2, SLC6A2; accurate to ±20%"}, "[10]": {"molecular_target": "T3, ADRA1A (Homo sapiens, UniProt P35348)", "T3 sequence (P35348 1-466)": "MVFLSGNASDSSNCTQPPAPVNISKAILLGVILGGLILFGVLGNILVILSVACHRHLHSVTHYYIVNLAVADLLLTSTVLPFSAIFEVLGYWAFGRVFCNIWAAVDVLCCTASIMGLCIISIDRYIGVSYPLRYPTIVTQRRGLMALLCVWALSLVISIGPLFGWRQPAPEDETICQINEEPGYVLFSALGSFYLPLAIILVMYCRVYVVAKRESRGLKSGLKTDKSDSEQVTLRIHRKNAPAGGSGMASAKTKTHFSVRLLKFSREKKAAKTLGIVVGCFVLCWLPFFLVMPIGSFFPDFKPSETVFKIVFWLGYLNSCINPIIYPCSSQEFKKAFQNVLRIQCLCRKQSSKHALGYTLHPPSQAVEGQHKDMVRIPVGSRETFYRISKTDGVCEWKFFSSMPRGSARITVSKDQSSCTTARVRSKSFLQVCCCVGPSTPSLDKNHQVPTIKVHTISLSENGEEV", "conditions": "Table 2, ADRA1A; accurate to ±20%"}, "[11]": {"molecular_target": "SLC6A3 (Homo sapiens, UniProt Q01959)", "experiment": "safety panel assay, SLC6A3", "assay_type": "biochemical", "conditions": "Table 2, SLC6A3; accurate to ±20%"}, "[12]": {"experiment": "Pharmacokinetics in rats after i.v. and oral administration", "conditions": "rat"}, "[13]": {"molecular_target": "SCN5A (Homo sapiens, UniProt Q14524)", "conditions": "Table 2, SCN5A; accurate to ±20%"}, "[14]": {"molecular_target": "T4, SLCO1B1 (Homo sapiens, UniProt Q9Y6L6)", "T4 sequence (Q9Y6L6 1-691)": "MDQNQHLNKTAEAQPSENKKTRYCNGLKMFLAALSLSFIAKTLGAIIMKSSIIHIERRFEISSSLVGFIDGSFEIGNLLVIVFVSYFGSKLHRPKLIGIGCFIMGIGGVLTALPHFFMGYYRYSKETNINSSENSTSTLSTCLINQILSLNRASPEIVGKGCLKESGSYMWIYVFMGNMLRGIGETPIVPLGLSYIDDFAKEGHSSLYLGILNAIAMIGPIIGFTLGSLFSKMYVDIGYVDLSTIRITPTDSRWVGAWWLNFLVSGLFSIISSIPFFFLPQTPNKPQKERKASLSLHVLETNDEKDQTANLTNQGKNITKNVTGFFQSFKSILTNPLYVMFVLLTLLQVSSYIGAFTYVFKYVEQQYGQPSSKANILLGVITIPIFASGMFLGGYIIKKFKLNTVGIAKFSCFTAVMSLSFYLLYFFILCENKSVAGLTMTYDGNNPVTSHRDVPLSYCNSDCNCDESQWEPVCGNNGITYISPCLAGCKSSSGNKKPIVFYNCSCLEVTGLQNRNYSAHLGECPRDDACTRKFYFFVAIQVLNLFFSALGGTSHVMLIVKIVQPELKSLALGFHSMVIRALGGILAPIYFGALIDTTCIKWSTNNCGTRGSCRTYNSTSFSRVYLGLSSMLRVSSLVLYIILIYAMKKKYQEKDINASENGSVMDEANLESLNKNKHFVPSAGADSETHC", "experiment": "in vitro transporter assay, SLCO1B1", "conditions": "Table 1, predicted target SLCO1B1"}, "[15]": {"molecular_target": "PRG (Homo sapiens, UniProt P06401)", "conditions": "Table 2, PRG; accurate to ±20%"}, "[16]": {"molecular_target": "HTR1A (Homo sapiens, UniProt P08908)", "sequence (P08908 whole entry, species assumed)": "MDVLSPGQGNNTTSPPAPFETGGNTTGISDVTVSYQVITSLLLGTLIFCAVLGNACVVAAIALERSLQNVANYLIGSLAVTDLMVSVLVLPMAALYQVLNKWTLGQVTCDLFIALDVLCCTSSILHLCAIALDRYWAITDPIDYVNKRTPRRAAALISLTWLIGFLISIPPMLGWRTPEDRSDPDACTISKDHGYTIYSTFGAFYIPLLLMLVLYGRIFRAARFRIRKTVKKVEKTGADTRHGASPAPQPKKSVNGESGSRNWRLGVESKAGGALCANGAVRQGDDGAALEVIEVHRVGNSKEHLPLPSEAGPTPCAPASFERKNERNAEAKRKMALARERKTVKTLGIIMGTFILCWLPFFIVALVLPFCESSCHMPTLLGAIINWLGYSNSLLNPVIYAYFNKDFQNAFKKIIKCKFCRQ", "experiment": "safety panel assay, HTR1A", "assay_type": "binding", "conditions": "Table 2, HTR1A; accurate to ±20%"}, "[17]": {"molecular_target": "PDE4D (Homo sapiens, UniProt Q08499)", "sequence (Q08499 whole entry)": "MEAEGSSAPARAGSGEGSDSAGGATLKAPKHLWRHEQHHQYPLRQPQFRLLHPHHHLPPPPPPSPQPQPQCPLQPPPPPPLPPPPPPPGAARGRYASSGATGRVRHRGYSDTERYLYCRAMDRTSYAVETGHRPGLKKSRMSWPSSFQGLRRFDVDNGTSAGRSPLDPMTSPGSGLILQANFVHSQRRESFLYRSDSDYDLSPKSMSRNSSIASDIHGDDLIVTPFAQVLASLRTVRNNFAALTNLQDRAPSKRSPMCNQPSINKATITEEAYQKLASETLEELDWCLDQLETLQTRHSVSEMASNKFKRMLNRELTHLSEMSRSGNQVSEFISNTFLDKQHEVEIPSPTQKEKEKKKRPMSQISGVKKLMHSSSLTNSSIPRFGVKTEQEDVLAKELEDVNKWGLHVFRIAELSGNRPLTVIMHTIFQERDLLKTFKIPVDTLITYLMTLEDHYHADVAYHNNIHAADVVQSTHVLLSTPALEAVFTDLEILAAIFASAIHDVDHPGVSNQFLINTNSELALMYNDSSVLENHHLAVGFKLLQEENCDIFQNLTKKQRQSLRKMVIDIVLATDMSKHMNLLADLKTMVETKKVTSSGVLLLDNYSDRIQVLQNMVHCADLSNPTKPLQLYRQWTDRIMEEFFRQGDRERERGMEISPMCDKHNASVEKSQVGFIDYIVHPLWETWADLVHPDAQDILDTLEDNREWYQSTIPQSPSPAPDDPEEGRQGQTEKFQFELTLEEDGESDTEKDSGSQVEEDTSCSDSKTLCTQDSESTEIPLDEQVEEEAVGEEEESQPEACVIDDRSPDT", "experiment": "in vitro assay, PDE4D", "assay_type": "biochemical", "conditions": "Table 2, PDE4D; accurate to ±20%"}, "[18]": {"molecular_target": "ADORA3 (Homo sapiens, UniProt P0DMS8)", "sequence (P0DMS8 whole entry, species assumed)": "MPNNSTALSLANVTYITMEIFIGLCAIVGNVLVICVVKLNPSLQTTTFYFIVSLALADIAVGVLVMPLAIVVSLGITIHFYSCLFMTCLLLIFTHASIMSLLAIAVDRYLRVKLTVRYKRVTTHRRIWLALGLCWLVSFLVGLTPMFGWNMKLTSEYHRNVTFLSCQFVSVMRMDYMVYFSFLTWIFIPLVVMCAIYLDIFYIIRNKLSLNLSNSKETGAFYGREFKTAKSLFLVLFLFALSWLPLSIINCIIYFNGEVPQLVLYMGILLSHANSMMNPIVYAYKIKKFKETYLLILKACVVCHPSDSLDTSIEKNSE", "conditions": "Table 2, ADORA3; accurate to ±20%"}, "[19]": {"molecular_target": "DRD3 (Homo sapiens, UniProt P35462)", "sequence (P35462 whole entry, species assumed)": "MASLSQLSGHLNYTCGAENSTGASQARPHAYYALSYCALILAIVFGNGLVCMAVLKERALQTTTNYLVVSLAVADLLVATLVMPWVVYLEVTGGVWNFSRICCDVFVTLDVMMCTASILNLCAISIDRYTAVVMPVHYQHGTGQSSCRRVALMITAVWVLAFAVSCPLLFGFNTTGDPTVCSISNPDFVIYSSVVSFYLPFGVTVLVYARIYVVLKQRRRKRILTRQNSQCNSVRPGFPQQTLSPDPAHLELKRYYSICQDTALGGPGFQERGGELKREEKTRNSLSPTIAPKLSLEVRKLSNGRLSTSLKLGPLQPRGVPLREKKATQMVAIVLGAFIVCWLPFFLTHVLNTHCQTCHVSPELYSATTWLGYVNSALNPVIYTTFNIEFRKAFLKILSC", "conditions": "Table 2, DRD3; accurate to ±20%"}, "[20]": {"molecular_target": "ACHE (Homo sapiens, UniProt P22303)", "sequence (P22303 32-614)": "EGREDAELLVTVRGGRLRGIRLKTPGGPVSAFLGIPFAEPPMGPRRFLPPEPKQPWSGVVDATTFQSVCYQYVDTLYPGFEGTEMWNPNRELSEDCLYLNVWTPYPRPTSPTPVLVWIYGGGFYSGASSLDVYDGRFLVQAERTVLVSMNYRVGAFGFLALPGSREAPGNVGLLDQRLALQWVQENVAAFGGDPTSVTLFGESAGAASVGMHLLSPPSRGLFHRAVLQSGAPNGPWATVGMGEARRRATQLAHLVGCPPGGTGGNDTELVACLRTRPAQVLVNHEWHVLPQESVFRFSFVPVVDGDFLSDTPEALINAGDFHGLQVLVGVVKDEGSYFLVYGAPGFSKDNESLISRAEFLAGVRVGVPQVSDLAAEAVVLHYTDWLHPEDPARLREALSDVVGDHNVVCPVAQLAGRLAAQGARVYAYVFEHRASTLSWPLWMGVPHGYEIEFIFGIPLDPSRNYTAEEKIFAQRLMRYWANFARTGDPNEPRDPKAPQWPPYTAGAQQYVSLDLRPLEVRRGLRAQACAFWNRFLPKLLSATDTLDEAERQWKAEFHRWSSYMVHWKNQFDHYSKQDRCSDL", "conditions": "Table 2, ACHE; accurate to ±20%"}, "[21]": {"conditions": "rat, in vivo, 1 mg/kg"}, "[22]": {"molecular_target": "PRMT1 (Homo sapiens, UniProt Q99873)", "sequence (Q99873 whole entry)": "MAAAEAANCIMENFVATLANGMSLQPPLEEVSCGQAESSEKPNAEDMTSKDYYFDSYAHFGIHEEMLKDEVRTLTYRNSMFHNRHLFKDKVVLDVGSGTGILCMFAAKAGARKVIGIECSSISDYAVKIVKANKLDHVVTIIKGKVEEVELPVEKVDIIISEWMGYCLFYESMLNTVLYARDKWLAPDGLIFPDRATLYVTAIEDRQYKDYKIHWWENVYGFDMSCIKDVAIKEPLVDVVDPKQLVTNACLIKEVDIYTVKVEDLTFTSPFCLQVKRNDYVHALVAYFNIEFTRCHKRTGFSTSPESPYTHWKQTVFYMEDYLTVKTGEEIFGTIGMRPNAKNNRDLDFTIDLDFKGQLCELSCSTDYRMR", "conditions": "Table 1, predicted target PRMT1"}, "[23]": {"molecular_target": "PDE3A (Homo sapiens, UniProt Q14432)", "sequence (Q14432 whole entry, species assumed)": "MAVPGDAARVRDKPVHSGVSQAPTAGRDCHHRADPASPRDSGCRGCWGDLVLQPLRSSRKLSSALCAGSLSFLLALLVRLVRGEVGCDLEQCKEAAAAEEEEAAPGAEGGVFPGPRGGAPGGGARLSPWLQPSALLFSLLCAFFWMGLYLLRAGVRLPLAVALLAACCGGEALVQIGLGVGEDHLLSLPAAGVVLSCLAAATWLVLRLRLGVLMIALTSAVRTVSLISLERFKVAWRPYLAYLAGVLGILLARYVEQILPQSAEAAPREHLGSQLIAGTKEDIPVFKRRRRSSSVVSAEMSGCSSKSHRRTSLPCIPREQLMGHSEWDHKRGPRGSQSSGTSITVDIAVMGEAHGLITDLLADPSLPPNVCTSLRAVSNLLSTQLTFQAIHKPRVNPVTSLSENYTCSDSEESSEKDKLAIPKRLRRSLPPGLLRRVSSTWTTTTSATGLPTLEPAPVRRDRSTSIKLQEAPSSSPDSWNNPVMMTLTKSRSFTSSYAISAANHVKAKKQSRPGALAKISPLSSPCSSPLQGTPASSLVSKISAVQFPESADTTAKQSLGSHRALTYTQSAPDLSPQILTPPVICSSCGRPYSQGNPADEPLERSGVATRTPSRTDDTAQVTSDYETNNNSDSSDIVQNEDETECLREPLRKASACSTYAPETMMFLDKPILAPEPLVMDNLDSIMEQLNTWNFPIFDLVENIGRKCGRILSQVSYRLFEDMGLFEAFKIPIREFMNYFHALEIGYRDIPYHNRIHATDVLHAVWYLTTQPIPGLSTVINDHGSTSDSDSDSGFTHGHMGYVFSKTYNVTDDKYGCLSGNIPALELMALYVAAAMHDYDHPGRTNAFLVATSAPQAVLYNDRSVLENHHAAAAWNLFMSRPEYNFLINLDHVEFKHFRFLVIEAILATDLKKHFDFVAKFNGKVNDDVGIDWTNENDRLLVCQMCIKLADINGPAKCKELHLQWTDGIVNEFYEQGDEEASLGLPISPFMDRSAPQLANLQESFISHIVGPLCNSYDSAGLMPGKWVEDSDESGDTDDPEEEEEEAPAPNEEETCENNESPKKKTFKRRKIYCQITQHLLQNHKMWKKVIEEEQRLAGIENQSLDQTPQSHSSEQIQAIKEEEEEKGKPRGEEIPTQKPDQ", "experiment": "safety panel assay, PDE3A", "assay_type": "biochemical"}, "[24]": {"experiment": "not given", "remark": "listed apart in the source"}}, "note": "pIC50: −log10 of the molar value. Peptide text beside a SMILES is read from it."}
{"molecule": "COC(=O)[C@H](Cc1ccccc1)NC(=O)[C@@H](N)CC(=O)O", "note": "[Aspartame] (HELM PEPTIDE1{D.F.[CO[*:1]]}$$$$V2.0)", "values": [{"measurement": "Ki/IC50 Or EC50", "setting": "[1]", "value": 13, "unit": "µM"}, {"measurement": "activity in the BioMAP cell-based systems", "setting": "[2]; 1.1, 3.3, 10, 30 μM", "value": "no measurable activity"}]}
{"molecule": "O=C(O)c1ccccc1", "note": "[Benzoic acid]", "values": [{"measurement": "Ki/IC50 Or EC50", "setting": "[3]", "value": 18, "unit": "µM"}, {"measurement": "Ki/IC50 Or EC50", "setting": "[4]", "value": 260, "unit": "µM"}]}
{"molecule": "CCCCOC(=O)c1ccc(O)cc1", "note": "[Butylparaben]", "values": [{"measurement": "Ki/IC50 Or EC50", "setting": "[3]", "value": 6.6, "unit": "µM"}, {"measurement": "Ki/IC50", "setting": "[5]; Table 1, predicted target CHRM1", "value": 12, "unit": "µM"}, {"measurement": "Ki/IC50 Or EC50", "setting": "[6]; Table 2, SLCO2B1, accurate to ±20%", "value": 39, "unit": "µM"}, {"measurement": "Papp", "setting": "[7]", "value": 8.3, "unit": "×10⁻⁶ cm/s"}, {"measurement": "MCP-1 (CCL2) and sPGE2 levels", "setting": "[2]; peripheral blood mononuclear cells and venular endothelial cells", "value": "dose-dependently decreased"}, {"measurement": "pIC50", "setting": "[8]", "value": 4.72}, {"measurement": "Ki/IC50 Or EC50", "setting": "[8]; Table 2, TBXA2R, accurate to ±20%", "value": 19, "unit": "µM"}, {"measurement": "Ki/IC50 Or EC50", "setting": "[9]", "value": 20, "unit": "µM"}, {"measurement": "Ki/IC50 Or EC50", "setting": "[10]", "value": 16, "unit": "µM"}, {"measurement": "Ki/IC50 Or EC50", "setting": "[11]", "value": 18, "unit": "µM"}, {"measurement": "concentrations in the blood", "setting": "[12]; dosed at 10 mg/kg oral", "value": "negligible concentrations in the blood"}, {"measurement": "Cmax", "setting": "[12]; in vivo, po, 10 mg/kg", "value": "< 2.6", "unit": "nM"}, {"measurement": "Ki/IC50 Or EC50", "setting": "[13]", "value": 33, "unit": "µM"}]}
{"molecule": "CCCCCCCCCCCCOS(=O)(=O)[O-].[Na+]", "note": "[Sodium lauryl sulfate]", "values": [{"measurement": "Ki/IC50", "setting": "[14]", "value": 2.9, "unit": "µM"}, {"measurement": "Ki/IC50 Or EC50", "setting": "[15]", "value": 15, "unit": "µM"}, {"measurement": "Ki/IC50 Or EC50", "setting": "[16]", "value": 15, "unit": "µM"}, {"measurement": "Ki/IC50 Or EC50", "setting": "[17]", "value": 23, "unit": "µM"}, {"measurement": "Ki/IC50 Or EC50", "setting": "[5]; Table 2, CHRM1, accurate to ±20%", "value": 29, "unit": "µM"}, {"measurement": "Ki/IC50", "setting": "[6]; Table 1, predicted target SLCO2B1", "value": 2.8, "unit": "µM"}, {"measurement": "Ki/IC50 Or EC50", "setting": "[10]", "value": 15, "unit": "µM"}, {"measurement": "Ki/IC50 Or EC50", "setting": "[18]", "value": 15, "unit": "µM"}, {"measurement": "Ki/IC50 Or EC50", "setting": "[19]", "value": 18, "unit": "µM"}]}
{"molecule": "FD&C Red No. 3", "values": [{"measurement": "Ki/IC50 Or EC50", "setting": "[20]", "value": 0.42, "unit": "µM"}, {"measurement": "%F", "setting": "[21]", "value": 0.7, "unit": "%"}, {"measurement": "Ki/IC50", "setting": "[22]", "value": 0.46, "unit": "µM"}, {"measurement": "Ki/IC50 Or EC50", "setting": "[17]", "value": 0.32, "unit": "µM"}, {"measurement": "Ki/IC50 Or EC50", "setting": "[23]; Table 2, PDE3A, accurate to ±20%", "value": 0.092, "unit": "µM"}, {"measurement": "pIC50", "setting": "[23]; Table 4, target PDE3A", "value": 7.04}, {"measurement": "MDCK-LE Papp", "value": "<0.5", "unit": "×10⁻⁶ cm/s"}, {"measurement": "plasma protein binding", "setting": "[24]", "value": 99, "unit": "%"}]}
